Measured values taken from patent US8063048B2, “Acetylenyl-pyrazolo-pyrimidine derivatives” (Hoffmann-La Roche Inc., priority 2005, dated 2011).

| melting point | Compound |
| --- | --- |
| 220 to 221 °C | Nc1ncc(C#Cc2cnc3c(C(F)(F)F)cc(-c4ccc(C(F)(F)F)cc4)nn23)cn1 [Example 243, 5-[8-Trifluoromethyl-6-(4-trifluoromethyl-phenyl)-imidazo[1,2-b]pyridazin-3-ylethynyl]-pyrimidin-2-ylamine] |
| 187 °C | CC(C)(C)NS(=O)(=O)c1ccc(C#Cc2cnn3c(C(F)F)cc(-c4ccc(C(F)(F)F)cc4)nc23)s1 [Example 165, 5-[7-Difluoromethyl-5-(4-trifluoromethyl-phenyl)-pyrazolo[1,5-a]pyrimidin-3-ylethynyl]-thiophene-2-sulfonic acid tert-butylamide] |
| 206 to 208 °C | CC(C)(O)c1cc(-c2ccc(Cl)cc2)nc2c(C#Cc3ccc(S(N)(=O)=O)s3)cnn12 [Example 154, 5-[5-(4-Chloro-phenyl)-7-(1-hydroxy-1-methyl-ethyl)-pyrazolo[1,5-a]pyrimidin-3-ylethynyl]-thiophene-2-sulfonic acid amide] |
| 178 °C | CN(C)CCNS(=O)(=O)c1ccc(C#Cc2ncn3c(C(F)(F)F)cc(-c4ccc(C(F)(F)F)cc4)nc23)s1 [Example 267, 5-[4-Trifluoromethyl-2-(4-trifluoromethyl-phenyl)-imidazo[1,5-a]pyrimidin-8-ylethynyl]-thiophene-2-sulfonic acid (2-dimethylamino-ethyl)-amide] |
| 214 to 216 °C | Cc1cc(-c2ccc(C(F)(F)F)cc2)nc2c(C#Cc3cccc(S(N)(=O)=O)c3)cnn12 [Example 151, 3-[7-Methyl-5-(4-trifluoromethyl-phenyl)-pyrazolo[1,5-a]pyrimidin-3-ylethynyl]-benzenesulfonamide] |
| 239 to 240 °C | NS(=O)(=O)c1ccc(C#Cc2cnn3c(C(F)(F)F)cc(-c4ccc(Cl)cc4)nc23)s1 [Example 97, 5-[5-(4-Chloro-phenyl)-7-trifluoromethyl-pyrazolo[1,5-a]pyrimidin-3-ylethynyl]-thiophene-2-sulfonic acid amide] |
| 215 °C | O=S(=O)(Nc1ccncc1)c1ccc(C#Cc2cnn3c(C(F)F)cc(-c4ccc(C(F)(F)F)cc4)nc23)s1 [Example 282, 5-[7-Difluoromethyl-5-(4-trifluoromethyl-phenyl)-pyrazolo[1,5-a]pyrimidin-3-ylethynyl]-thiophene-2-sulfonic acid pyridin-4-ylamide] |
| 186 to 188 °C | COCCNS(=O)(=O)c1cccc(C#Cc2cnn3c(C(F)(F)F)cc(-c4ccc(C(F)(F)F)cc4)nc23)c1 [Example 131, N-(2-Methoxy-ethyl)-3-[7-trifluoromethyl-5-(4-trifluoromethyl-phenyl)-pyrazolo[1,5-a]pyrimidin-3-ylethynyl]-benzenesulfonamide] |
| 173 to 178 °C | O=S(=O)(c1cncc(C#Cc2cnn3c(C(F)(F)F)cc(-c4ccc(C(F)(F)F)cc4)nc23)c1)N(CCO)CCO [Example 13, 5-[7-Trifluoromethyl-5-(4-trifluoromethyl-phenyl)-pyrazolo[1,5-a]pyrimidin-3-ylethynyl]-pyridine-3-sulfonic acid bis-(2-hydroxy-ethyl)-amide] |
| 226 to 227 °C | CN(C)S(=O)(=O)c1ccc(C#Cc2cnn3c(C(F)(F)F)cc(-c4ccc(C(F)(F)F)cc4)nc23)cc1 [Example 121, N,N-Dimethyl-4-[7-trifluoromethyl-5-(4-trifluoromethyl-phenyl)-pyrazolo[1,5-a]pyrimidin-3-ylethynyl]-benzenesulfonamide] |
| 214 to 216 °C | CNC(=O)c1ccc(C#Cc2cnn3c(C4CC4)cc(-c4ccc(Cl)cc4)nc23)cc1 [Example 306, 4-[5-(4-Chloro-phenyl)-7-cyclopropyl-pyrazolo[1,5-a]pyrimidin-3-ylethynyl]-N-methyl-benzamide] |
| 252 to 256 °C | FC(F)(F)c1ccc(-c2cc(C(F)(F)F)n3ncc(C#Cc4ccncc4)c3n2)cc1 [Example 7, 3-Pyridin-4-ylethynyl-7-trifluoromethyl-5-(4-trifluoromethyl-phenyl)-pyrazolo[1,5-a]pyrimidine] |
| 123 °C | Cc1cc(-c2cc(C(F)(F)F)n3ncc(C#Cc4ncc(S(N)(=O)=O)s4)c3n2)ccc1Cl [Example 104, 2-[5-(4-Chloro-3-methyl-phenyl)-7-trifluoromethyl-pyrazolo[1,5-a]pyrimidin-3-ylethynyl]-thiazole-5-sulfonic acid amide] |
| 260 to 262 °C | Nc1ccc(C#Cc2cnc3c(C(F)(F)F)cc(-c4ccc(C(F)(F)F)cc4)cn23)cn1 [Example 191, 5-[8-Trifluoromethyl-6-(4-trifluoromethyl-phenyl)-imidazo[1,2-a]pyridin-3-ylethynyl]-pyridin-2-ylamine] |
| 165 to 166 °C | CN(C)CCNS(=O)(=O)c1cc(C#Cc2cnn3c(C(F)F)cc(-c4ccc(C(F)(F)F)cc4)nc23)c(F)cc1F [Example 134, 5-[7-Difluoromethyl-5-(4-trifluoromethyl-phenyl)-pyrazolo[1,5-a]pyrimidin-3-ylethynyl]-N-(2-dimethylamino-ethyl)-2,4-difluoro-benzenesulfonamide] |
| 233 to 234 °C | Cc1cc(C#Cc2cnn3c(C(F)(F)F)cc(-c4ccc(C(F)(F)F)cc4)nc23)cnc1N [Example 127, 3-Methyl-5-[7-trifluoromethyl-5-(4-trifluoromethyl-phenyl)-pyrazolo[1,5-a]pyrimidin-3-ylethynyl]-pyridin-2-ylamine] |
| 129 °C | O=S(=O)(c1ccc(C#Cc2cnn3c(C(F)(F)F)cc(-c4cccc(C(F)(F)F)c4)nc23)s1)N(CCO)CCO [Example 266, 5-[7-Trifluoromethyl-5-(3-trifluoromethyl-phenyl)-pyrazolo[1,5-a]pyrimidin-3-ylethynyl]-thiophene-2-sulfonic acid bis-(2-hydroxy-ethyl)-amide] |
| 193 to 194 °C | CN(C)CCNS(=O)(=O)c1ccc(C#Cc2cnn3c(C(F)(F)F)cc(-c4ccc(C(F)(F)F)cc4)nc23)cc1 [Example 126, N-(2-Dimethylamino-ethyl)-4-[7-trifluoromethyl-5-(4-trifluoromethyl-phenyl)-pyrazolo[1,5-a]pyrimidin-3-ylethynyl]-benzenesulfonamide] |
| 145 °C | Cc1cc(-c2cc(C(F)F)n3ncc(C#Cc4ccc(S(=O)(=O)NC(C)(C)CO)s4)c3n2)ccc1Cl [Example 175, 5-[5-(4-Chloro-3-methyl-phenyl)-7-difluoromethyl-pyrazolo[1,5-a]pyrimidin-3-ylethynyl]-thiophene-2-sulfonic acid (2-hydroxy-1,1-dimethyl-ethyl)-amide] |
| 243 to 245 °C | Nc1ccc(C#Cc2cnn3c(C(F)(F)F)cc(-c4ccc(C(F)(F)F)cc4)cc23)cn1 [Example 235, 5-[7-Trifluoromethyl-5-(4-trifluoromethyl-phenyl)-pyrazolo[1,5-a]pyridin-3-ylethynyl]-pyridin-2-ylamine] |
| 240 °C | Cc1cc(-c2cc(C(F)(F)F)n3ncc(C#Cc4cnc(N)nc4)c3n2)ccc1C(F)(F)F [Example 290, 5-[5-(3-Methyl-4-trifluoromethyl-phenyl)-7-trifluoromethyl-pyrazolo[1,5-a]pyrimidin-3-ylethynyl]-pyrimidin-2-ylamine] |
